Measurements taken from patent publication US20090124672A1 (priority 2007, published 2009).

Key:
hMAO-B = molecular target: T1, hMAO-B (Homo sapiens, UniProt P27338); experiment: MAO-B inhibition assay (Amplex Red, horseradish peroxidase-coupled); format: biochemical
T1 construct: purchased Sigma M7441
T1 sequence (P27338 1-520): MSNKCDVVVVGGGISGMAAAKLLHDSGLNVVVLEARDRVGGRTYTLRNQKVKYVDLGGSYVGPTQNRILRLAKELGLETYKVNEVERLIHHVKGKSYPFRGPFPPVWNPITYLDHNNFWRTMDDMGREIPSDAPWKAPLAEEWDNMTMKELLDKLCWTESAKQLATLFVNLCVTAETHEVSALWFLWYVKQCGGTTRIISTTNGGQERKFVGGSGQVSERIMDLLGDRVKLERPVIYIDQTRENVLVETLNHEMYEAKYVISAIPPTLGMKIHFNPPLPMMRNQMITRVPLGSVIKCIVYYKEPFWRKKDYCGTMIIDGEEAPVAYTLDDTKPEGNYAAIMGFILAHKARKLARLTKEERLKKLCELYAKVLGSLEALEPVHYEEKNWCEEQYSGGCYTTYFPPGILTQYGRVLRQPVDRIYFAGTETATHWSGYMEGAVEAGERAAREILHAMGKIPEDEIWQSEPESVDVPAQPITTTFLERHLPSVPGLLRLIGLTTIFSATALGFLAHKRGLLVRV
Method in brief: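 Human MAO-A (0.6 U/ml) or MAO-B (2.5 U/ml) in 0.1 M potassium phosphate pH 7.5 with 0.5 mM tyramine, 0.12 mM Amplex Red and HRP; compounds at 0.1 nM-10 μM, 30 min at 37 °C, absorbance at 570 nm. Background set with clorgyline (MAO-A) or deprenyl (MAO-B); IC50 from sigmoidal fits.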

hMAO-A = molecular target: T2, hMAO-A (Homo sapiens, UniProt P21397); experiment: MAO-A inhibition assay (Amplex Red, horseradish peroxidase-coupled); format: biochemical
T2 construct: purchased Sigma M7316
T2 sequence (P21397 1-527): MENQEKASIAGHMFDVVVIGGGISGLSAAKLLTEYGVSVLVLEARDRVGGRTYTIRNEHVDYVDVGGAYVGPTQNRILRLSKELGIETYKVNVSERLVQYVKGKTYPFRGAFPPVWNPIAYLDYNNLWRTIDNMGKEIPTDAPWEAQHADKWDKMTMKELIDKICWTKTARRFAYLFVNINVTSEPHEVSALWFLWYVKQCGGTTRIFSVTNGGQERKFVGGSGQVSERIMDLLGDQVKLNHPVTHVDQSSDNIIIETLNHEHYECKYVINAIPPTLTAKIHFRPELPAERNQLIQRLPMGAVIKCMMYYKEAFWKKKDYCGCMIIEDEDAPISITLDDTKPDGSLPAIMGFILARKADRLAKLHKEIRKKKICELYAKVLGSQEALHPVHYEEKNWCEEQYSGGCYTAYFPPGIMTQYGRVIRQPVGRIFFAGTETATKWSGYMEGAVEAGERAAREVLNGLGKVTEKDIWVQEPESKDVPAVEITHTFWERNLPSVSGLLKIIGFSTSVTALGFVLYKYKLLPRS
Protocol: MAO-A (Sigma M7316) and MAO-B (Sigma M7441) inhibition assays were conducted in 96-well micro-plates according to the method described by Zhou et al. [Analytical Biochemistry 253, 169-174, 1997]. Both assays were performed in potassium phosphate buffer (0.1 M, pH 7.5) containing 0.5 mM tyramine (Sigma T2879), 0.12 mM N-acetyl-3,7-dihydrophenoxazine (Amplex Red, Invitrogen A12222), 1.2 unit/ml horseradish peroxidase (Sigma P2088), 0.6 unit/ml MAO-A or 2.5 unit/ml MAO-B, and various concentrations of test compounds (0.1 nM to 10 uM). Reactions were initiated by the addition of a pre-mixed solution of tyramine, horseradish peroxidase and Amplex Red, and were allowed to proceed at 37° C. for 30 min. Enzyme activities were determined by measuring absorbance at 570 nm (SpectralMax Plate reader), absorbance of oxidized Amplex Red generated by this horseradish peroxidase-coupled reaction. Nonspecifically formed products were determined in the presence of 2 and 10 µM clorgyline and deprenyl for MAO-A and MAO-B, respectively. IC50 values were determined by fitting concentration-inhibition data to sigmoidal dose-response curves with two-floating parameters: IC50 and Hill coefficient.

[1] = molecular target: T3, hALDH2 (recombinant human mitochondria ALDH) (Homo sapiens, UniProt P05091); experiment: ALDH2 inhibition assay (NADH formation, formaldehyde substrate); format: biochemical
T3 sequence (P05091 18-517): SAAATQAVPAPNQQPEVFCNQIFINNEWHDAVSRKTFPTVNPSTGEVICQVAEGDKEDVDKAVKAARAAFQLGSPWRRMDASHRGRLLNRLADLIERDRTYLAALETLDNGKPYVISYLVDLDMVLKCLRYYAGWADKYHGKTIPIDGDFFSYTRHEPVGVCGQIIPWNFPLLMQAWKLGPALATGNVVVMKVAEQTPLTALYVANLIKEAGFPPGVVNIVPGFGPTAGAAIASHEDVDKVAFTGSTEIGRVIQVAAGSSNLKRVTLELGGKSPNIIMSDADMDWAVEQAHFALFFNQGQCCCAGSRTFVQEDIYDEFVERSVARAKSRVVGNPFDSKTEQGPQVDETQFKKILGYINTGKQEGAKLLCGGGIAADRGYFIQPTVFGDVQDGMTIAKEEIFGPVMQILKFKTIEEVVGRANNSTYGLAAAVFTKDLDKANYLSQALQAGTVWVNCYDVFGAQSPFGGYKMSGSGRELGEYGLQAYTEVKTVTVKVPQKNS
Method in brief: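 1 nM enzyme in 50 mM sodium phosphate pH 7.4 with 1.2 mM NAD+ and compound at 0.03–1000 nM; reaction started with 0.15 mM formaldehyde at 25 °C. NADH formation followed by fluorescence (ex 340/em 460 nm). IC50 from sigmoidal fits with floating Hill slope; apparent Ki from Morrison equation if tight binding.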

Syrian golden hamsters = settings: compared with daidzin; cited from earlier work

Row | SMILES | IC50 (hMAO-B) [µM] | IC50 (hMAO-A) [µM] | IC50 [1] [µM] | suppressing ethanol uptake (Syrian golden hamsters)
1 | CCOC(=O)c1ccc(COc2ccc3c(=O)c(-c4ccc(O)cc4)coc3c2)cc1 [PT-34, ethyl 4-{[3-(4-hydroxyphenyl)-4-oxochromen-7-yloxy]methyl}benzoate] | 2.3 | 24 | 0.13 | –
2 | O=c1c(-c2ccc(O)cc2)coc2cc(O)ccc12 [daidzein] | – | – | – | effective in suppressing ethanol uptake, but with decreased potency
